Measured values reported in US20240374535A1, “COMPOSITIONS AND METHODS FOR TREATING BIOFILM DISORDERS AND INFECTIONS” (AHV International B.V., priority 2021, published 2024).
Where two headings read alike, the source gives them in different places.

Columns and labels:
[1] = tested on: Staphylococcus epidermis ATCC 35984 biofilm; test: MBEC assay (biofilm eradication, CFU log reduction); type: cell-based, S. epidermidis; conditions: for minimal effective concentration: read-out: S. epidermidis MBEC mM with log reduction ≥1
Description: (§1) The exact weighed amount was noted and the volume of solvent to reach a 80 mM dilution calculated. Half of the volume was added first, by adding Tween 80. In a second step, the other half of the volume DMSO was added and the closed tube inverted 5-10 times and then vortexed very thoroughly for at least 30 seconds. If after this procedure unsolved material was still visible, the tube was placed in a shaker at 37° C. at 150 rpm for at least 30 minutes. […] For the MBEC assay (method 1.3) the solution needs to be diluted to a final concentration of 2 mM in 0.9% saline solution and then further diluted to 1 mM, 0.5 mM, 0.25 mM and 0.125 mM in saline. Those dilutions were added as treatment to the 96 well plates with the grown biofilm (see method 3).
(§2) Frozen aliquots of Staphylococcus epidermis ATCC 35984 and Pseudomonas aeruginosa ATCC 27853 were used to inoculate 20 mL of Tryptic Soy Broth (TSB) in a 100 mL Erlenmeyer flask at 37° C. and 150 rpm and incubated overnight (Infors). The OD600 of the overnight culture was measured with a spectrophotometer (Evolution™ 201/220 UV-Visible Spectrophotometer, Thermo Fisher Scientific) and diluted to an OD600 of 0.2, which resembles 10^8 CFU/mL. The cell suspension of OD600=0.2 was seeded into a U-bottom-shaped 96 well plates by pipetting 100 μL per well in column 1-11, column 12 was filled with 100 μL medium as sterility control. The 96 well plates were sealed with adhesive polyethylene film for sealing microplates and incubated for 48 h at 37° C. at static conditions. After the biofilm growth phase, 100 μL of treatment solutions (method 1) were added to the vials resulting in treatment concentrations of 1 mM, 0.5 mM, 0.25 mM and 0.125 mM and with the respective concentration of Tween 80 and DMSO each at 0.63%, 0.32%, 0.16% and 0.08%. The same concentration was applied to four different wells of the same bacterial strain, resulting in four replicates for each concentration and strain. The treatment was incubated for 20 h at 37° C. at static conditions. After the treatment the supernatant was carefully removed and the well with the biofilm washed carefully for one time with 200 μL 0.9% saline solution. 200 μL saline solution was added and the biofilm was resuspended thoroughly. When fully homogenized then 20 μL was used for the first dilution in 180 μL 0.9% saline solution, which was prepared in a second plate. This dilution was continued until dilution step 10E−5 and 100 μL of the 10E−4 and 10E−5 dilution plated on a TSA plate. The TSA plates were incubated at 37° C. for 24 h. The colonies on the plates were enumerated, the colony forming units per mL of the dispensed biofilm and averages thereof and the log reduction in comparison with the untreated sample from the same wells plate calculated. Reduction of colony forming units goes hand in hand with the thickness of the biofilm and thus with the number bacteria that are present in the biofilm. Therefore, a significant reduction of colony forming units in the biofilm was defined at the value of log reduction ≥1 or more. This assay was repeated two times in two independent experiments)

[2] = tested on: Pseudomonas aeruginosa ATCC 27853; test: MIC assay (planktonic growth inhibition, OD600); type: cell-based, P. aeruginosa; conditions: for IC50 / IC90: Pseudomonas aeruginosa; for IC50: read-out: P. aeruginosa MIC50; for IC90: read-out: P. aeruginosa MIC90
Description: as §1
(§3) Frozen aliquots of Staphylococcus epidermis ATCC 35984 and Pseudomonas aeruginosa ATCC 27853 were used to inoculate a tryptic soy agar (TSA) plate and incubated overnight at 37° C. After incubation 3-5 well-isolated colonies with the same morphology were selected from the TSA plate and resuspended in 2 mL 0.9% saline solution with 3-6 glass beads and vortexed. The optical density at 600 nm (OD600) of the bacterial suspension was measured with a spectrophotometer (Evolution™ 201/220 UV-Visible Spectrophotometer, Thermo Fisher Scientific) and diluted to an OD600 of 0.0008, which resembles 10^6 CFU/mL.
(§4) The MIC assay was performed in a flat-bottom 96-microtiter plate. 50 μL of MHB-II was added into columns 2-11, and 100 μL to column 12 for sterility control. 100 μL of the 8 mM test compound solution (method 1) was added to column 1. A two-fold dilution series of the solution in MHB-II was achieved by resuspending 50 μL of the 8 mM solution from column 1 to column 2. This step was repeated until column 10. The respective concentration of Tween 80 and DMSO in column 1 was 2.5%, which is two-fold diluted throughout the plate. 50 μL of the bacterial suspension was added to column 1-11. The microtiter plates were sealed with adhesive polyethylene film for sealing microplates (Diversified Biotech) and incubated for 24 h at 37° C. After incubation the OD was measured at 600 nm with the Varioskan (Thermo Fisher Scientific). […] This assay was repeated three times in three independent experiments.

[3] = tested on: Staphylococcus epidermis ATCC 35984; test: MIC assay (planktonic growth inhibition, OD600); type: cell-based, S. epidermidis; conditions: for IC50: read-out: S. epidermidis MIC50; for IC90: read-out: S. epidermidis MIC90
Description: as §1, §3, §4

[4] = tested on: Pseudomonas aeruginosa ATCC 27853 biofilm; test: MBEC assay (biofilm eradication, CFU log reduction); type: cell-based, P. aeruginosa; conditions: for minimal effective concentration: Pseudomonas aeruginosa, read-out: P. aeruginosa MBEC mM with log reduction ≥1
Description: as §1, §2

udder cleft wound = test: In vivo udder cleft dermatitis test: wound assessment after spray treatment; set-up: species or system cow; conditions: for Conclusion (effect on udder cleft wound): over 60 days, all cows of the group
Description: An example of a biofilm-related disorder is Udder Cleft Dermatitis (UCD), which relates to a chronic wound. In this Example, di-alkyl thiosulfonates, dialkyl thiosulfinates and di-alkyl disulfides were tested for their effect on cows affected by UCD.
Experiments were performed to examine the effect of various sprays containing water (control), a test compound, or a reference compound (CTC spray, which contains chlorotetracycline hydrochloride, and was obtained from Dechra veterinary products).
0.35 mL of the spray was sprayed on an udder cleft wound per treatment. Treatments took place once a day at t=0, at t=3 days and t=6 days. In Table 6, the assessment qualifications that are used in Table 7, are explained.

[5] = 48 h grown biofilm, 20 h treatment, CFU log reduction vs untreated
[6] = ATCC27853, minimal concentration reducing final OD600 by 50%, 24 h at 37° C.
[7] = ATCC27853, minimal concentration reducing final OD600 by 90%, 24 h at 37° C.
[8] = minimal concentration reducing final OD600 by 50%, 24 h at 37° C.
[9] = minimal concentration reducing final OD600 by 90%, 24 h at 37° C.
[10] = ATCC27853, 48 h grown biofilm, 20 h treatment, CFU log reduction vs untreated

CCCCCCSSCCCCCC [Di-n-hexyl disulfide]
minimal effective concentration [1, 5]: > 1 mM | IC50 [2, 6]: > 4 mM | IC90 [2, 7]: > 4 mM | IC50 [3, 8]: > 4 mM | IC90 [3, 9]: > 4 mM | minimal effective concentration [4, 10]: > 1 mM

CCCSS(=O)(=O)c1ccc(C)cc1 [S-propyl-4-methylbenzene thiosulfonate]
S. epidermidis MBEC mM with log reduction ≥1 [1, 5]: 0.5 mM | P. aeruginosa MIC50 [2, 8]: 60 µM | P. aeruginosa MIC90 [2, 9]: 60 µM | S. epidermidis MIC50 [3, 8]: 60 µM | S. epidermidis MIC90 [3, 9]: 130 µM | P. aeruginosa MBEC mM with log reduction ≥1 [4, 5]: >1 mM

CCCCS[S+]([O-])CCCC (stereo not drawn) [Di-n-butyl thiosulfinate, S-butyl butane-1-sulfinothioate]
inflammation of the udder cleft wound after treatment (udder cleft wound; immediately after the treatment, later infection reduced and wound healed): fast inflammation reduction | Conclusion (effect on udder cleft wound) (udder cleft wound): Positive effect

Fc1ccc(SSc2ccc(F)cc2)cc1 [Bis (4-fluorophenyl) disulfide]
minimal effective concentration [1, 5]: > 1 mM | IC50 [2, 6]: 0.125 mM | IC90 [2, 7]: 0.25 mM | IC50 [3, 8]: 0.06 mM | IC90 [3, 9]: 0.06 mM | Conclusion (effect on udder cleft wound) (udder cleft wound): No effect | minimal effective concentration [4, 10]: > 1 mM

c1coc(CSSCc2ccco2)c1 [Di-furfuryl disulfide]
minimal effective concentration [1, 5]: > 1 mM | IC50 [2, 6]: 2 mM | IC90 [2, 7]: > 4 mM | IC50 [3, 8]: 2 mM | IC90 [3, 9]: > 4 mM | minimal effective concentration [4, 10]: > 1 mM

Di-isopropyl thiosulfonate
S. epidermidis MBEC mM with log reduction ≥1 [1, 5]: >1 mM | P. aeruginosa MIC50 [2, 8]: 2000 µM | P. aeruginosa MIC90 [2, 9]: 2000 µM | S. epidermidis MIC50 [3, 8]: 2000 µM | S. epidermidis MIC90 [3, 9]: 2000 µM | P. aeruginosa MBEC mM with log reduction ≥1 [4, 5]: >1 mM

CCSSCC [Di-ethyl disulfide]
minimal effective concentration ([1]; 20 h): > 1 mM | IC50 ([2]; ATCC27853, 24 h): > 4 mM | IC90 ([2]; ATCC27853, 24 h): > 4 mM | IC50 ([3]; 24 h): > 4 mM | IC90 ([3]; 24 h): > 4 mM | minimal effective concentration ([4]; ATCC27853, 20 h): > 1 mM

CC(C)SSC(C)C [Di-isopropyl disulfide]
minimal effective concentration [1, 5]: > 1 mM | IC50 [2, 6]: > 4 mM | IC90 [2, 7]: > 4 mM | IC50 [3, 8]: > 4 mM | IC90 [3, 9]: > 4 mM | Conclusion (effect on udder cleft wound) (udder cleft wound): No effect | minimal effective concentration [4, 10]: > 1 mM

CSSC [Di-methyl disulfide]
minimal effective concentration ([1]; 20 h): > 1 mM | IC50 ([2]; ATCC27853, 24 h): > 4 mM | IC90 ([2]; ATCC27853, 24 h): > 4 mM | IC50 ([3]; 24 h): > 4 mM | IC90 ([3]; 24 h): > 4 mM | minimal effective concentration ([4]; ATCC27853, 20 h): > 1 mM

CCCCCCCCCCSSCCCCCCCCCC [Di-n-decyl disulfide]
minimal effective concentration [1, 5]: > 1 mM | IC50 [2, 6]: > 4 mM | IC90 [2, 7]: > 4 mM | IC50 [3, 8]: > 4 mM | IC90 [3, 9]: > 4 mM | minimal effective concentration [4, 10]: > 1 mM

CCCCSSCCCC [Di-n-butyl disulfide]
minimal effective concentration [1, 5]: > 1 mM | IC50 [2, 6]: > 4 mM | IC90 [2, 7]: > 4 mM | IC50 [3, 8]: > 4 mM | IC90 [3, 9]: > 4 mM | Conclusion (effect on udder cleft wound) (udder cleft wound): No effect | minimal effective concentration [4, 10]: > 1 mM

CCCSSC [Methyl propyl disulfide]
minimal effective concentration [1, 5]: > 1 mM | IC50 [2, 6]: > 4 mM | IC90 [2, 7]: > 4 mM | IC50 [3, 8]: > 4 mM | IC90 [3, 9]: > 4 mM | minimal effective concentration [4, 10]: > 1 mM

CCCCCCCCCCS[S+]([O-])CCCCCCCCCC (stereo not drawn) [S-decyl-1-decane thiosulfinate]
S. epidermidis MBEC mM with log reduction ≥1 [1, 5]: >1 mM | P. aeruginosa MIC50 [2, 8]: >4000 µM | P. aeruginosa MIC90 [2, 9]: >4000 µM | S. epidermidis MIC50 [3, 8]: >4000 µM | S. epidermidis MIC90 [3, 9]: >4000 µM | P. aeruginosa MBEC mM with log reduction ≥1 [4, 5]: >1 mM

Bis(4-Chlorophenyl) thiosulfonate [Bis (4-chlorophenyl) thiosulfonate]
S. epidermidis MBEC mM with log reduction ≥1 [1, 5]: >1 mM | P. aeruginosa MIC50 [2, 8]: 250 µM | P. aeruginosa MIC90 [2, 9]: 2000 µM | S. epidermidis MIC50 [3, 8]: 30 µM | S. epidermidis MIC90 [3, 9]: 60 µM | P. aeruginosa MBEC mM with log reduction ≥1 [4, 5]: >1 mM

Bis(4-chlorophenyl) thiosulfinate [Bis (4-chlorophenyl) thiosulfinate]
S. epidermidis MBEC mM with log reduction ≥1 [1, 5]: >1 mM | P. aeruginosa MIC50 [2, 8]: 20 µM | P. aeruginosa MIC90 [2, 9]: 20 µM | S. epidermidis MIC50 [3, 8]: 20 µM | S. epidermidis MIC90 [3, 9]: 20 µM | P. aeruginosa MBEC mM with log reduction ≥1 [4, 5]: >1 mM

Bis(4-fluorophenyl) thiosulfinate [Bis (4-fluorophenyl) thiosulfinate]
S. epidermidis MBEC mM with log reduction ≥1 [1, 5]: >1 mM | P. aeruginosa MIC50 [2, 8]: 1000 µM | P. aeruginosa MIC90 [2, 9]: 4000 µM | S. epidermidis MIC50 [3, 8]: 125 µM | S. epidermidis MIC90 [3, 9]: 250 µM | P. aeruginosa MBEC mM with log reduction ≥1 [4, 5]: >1 mM

CCS[S+]([O-])CC (stereo not drawn) [Di-ethyl thiosulfinate, S-ethyl ethanesulfinothioate]
Conclusion (effect on udder cleft wound) (udder cleft wound): No effect

O=S(=O)(Cc1ccccc1)SCc1ccccc1 [Di-benzyl thiosulfonate]
S. epidermidis MBEC mM with log reduction ≥1 [1, 5]: 0.125 mM | P. aeruginosa MIC50 [2, 8]: 4000 µM | P. aeruginosa MIC90 [2, 9]: >4000 µM | S. epidermidis MIC50 [3, 8]: 2000 µM | S. epidermidis MIC90 [3, 9]: 4000 µM | P. aeruginosa MBEC mM with log reduction ≥1 [4, 5]: 0.125 mM

Bis(4-Fluorophenyl) thiosulfonate [Bis (4-fluorophenyl) thiosulfonate]
S. epidermidis MBEC mM with log reduction ≥1 [1, 5]: >1 mM | P. aeruginosa MIC50 [2, 8]: 2000 µM | P. aeruginosa MIC90 [2, 9]: 2000 µM | S. epidermidis MIC50 [3, 8]: 250 µM | S. epidermidis MIC90 [3, 9]: 2000 µM | P. aeruginosa MBEC mM with log reduction ≥1 [4, 5]: >1 mM
